Results reported in patent US9884043B2, “RORgammaT inhibitors” (Merck Sharp & Dohme Corp., priority 2011, dated 2018).

biological target: T1, HIS-tagged RORγ-LBD (Homo sapiens, UniProt P51449); test: TR-FRET assay (Protocol B), RORγ-LBD lysate / biotinylated SRC1-2 LXXLL peptide; type: biochemical; settings: unpurified RORγ-LBD lysate ~10 nM, SRC1-2 peptide 450 nM
T1 construct: HIS-tagged RORγ-LBD was recombinantly expressed in SF9 cells using a baculovirus expression system; made in house; host or cells: SF9 cells, baculovirus; crude lysate used
T1 sequence (P51449 269-508 limits assumed): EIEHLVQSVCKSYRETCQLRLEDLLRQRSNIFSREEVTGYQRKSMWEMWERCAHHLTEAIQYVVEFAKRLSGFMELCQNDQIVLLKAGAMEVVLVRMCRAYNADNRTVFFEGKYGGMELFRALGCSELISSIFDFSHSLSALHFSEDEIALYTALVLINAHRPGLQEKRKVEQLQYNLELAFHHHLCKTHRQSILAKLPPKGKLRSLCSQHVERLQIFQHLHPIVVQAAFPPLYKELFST
Description: Activation of RORgammaT activity can be measured using e.g. biochemical TR-FRET assay. In such an assay, interaction of cofactor-derived peptides with human RORgammaT-Ligand Binding Domain (LBD) can be measured.
To identify novel antagonists of RORgammaT, an assay was developed which employs the interaction of RORgammaT with its co-activator peptide SRC1_2. […] The assay was run following three slightly different protocols, i.e. Protocol A, Protocol B, and Protocol C, which are described below.
TR-Fret Assay (Protocol B)
HIS-tagged RORγ-LBD was recombinantly expressed in SF9 cells using a baculovirus expression system. The protein was not purified. Cells were lysed and the lysate was used as a source for RORγ-LBD for the assay. A 1:80 dilution of RORγ-LBD lysate in assay buffer (25 mM HEPES pH 7.0, 100 mM NaCl, 0.01% Tween, 0.1% BSA) was prepared and 5 μL was added to each well (RORγ-LBD final concentration ˜10 nM). Control wells received lysate from SF9 cells not expressing RORγ-LBD.
Compounds to be tested were diluted to 100× final test concentration in DMSO and further diluted to 4× final test concentration using assay buffer to provide the test compound mixture. An aliquot (5 μL) of the test compound mixture was added to each well.

Row | SMILES | IC50
1 | CN(C)C(=O)c1ccc2c(-c3ccc(C(=O)O)cc3)nn(C(=O)c3c(Cl)cccc3C(F)(F)F)c2c1 [Example 25B, 4-(1-(2-chloro-6-(trifluoromethyl)benzoyl)-6-(dimethyl-carbamoyl)-1H-indazol-3-yl)benzoic acid] | < 50 nM
2 | O=C(O)c1cccc(-c2nn(C(=O)c3c(Cl)cccc3C(F)(F)F)c3cccc(F)c23)c1 [Example 24E, 3-(1-(2-chloro-6-(trifluoromethyl)-benzoyl)-4-fluoro-1H-indazol-3-yl)benzoic acid] | 500 to 10000 nM
3 | O=C(c1c(Cl)cccc1C(F)(F)F)n1nc(-c2ccc(C(O)(C(F)(F)F)C(F)(F)F)cc2)c2c(F)cccc21 [Example 24D, (2-chloro-6-(tri-fluoromethyl)-phenyl)(4-fluoro-3-(4-(1,1,1,3,3,3-hexafluoro-2-hydroxypropan-2-yl)phenyl)-1H-indazol-1-yl)methanone] | 500 to 10000 nM
4 | O=C(c1c(Cl)cccc1C(F)(F)F)n1nc(-c2ccc(C(O)(C(F)(F)F)C(F)(F)F)cc2)c2ncccc21 [Example 24AE, (2-chloro-6-(trifluoromethyl)-phenyl)(3-(4-(1,1,1,3,3,3-hexafluoro-2-hydroxypropan-2-yl)phenyl)-1H-pyrazolo[4,3-b]pyridin-1-yl)methanone] | 500 to 10000 nM
5 | O=C(O)c1ccc(-c2nn(C(=O)c3c(Cl)cccc3C(F)(F)F)c3cc(O)ccc23)cc1 [Example 24BA, 4-(1-(2-chloro-6-(trifluoromethyl)-benzoyl)-6-hydroxy-1H-indazol-3-yl)benzoic acid] | < 50 nM
6 | CC(=O)Oc1cc(-c2nn(C(=O)c3c(Cl)cccc3C(F)(F)F)c3cccnc23)ccc1C(=O)O [Example 26I, 2-acetoxy-4-(1-(2-chloro-6-(trifluoromethyl)benzoyl)-1H-pyrazolo[4,3-b]pyridin-3-yl)benzoic acid] | < 50 nM
7 | NCc1ccc2c(-c3ccc(C(=O)O)cc3F)nn(C(=O)c3c(Cl)cccc3C(F)(F)F)c2c1 [Example 27B, 4-(6-(aminomethyl)-1-(2-chloro-6-(trifluoromethyl)benzoyl)-1H-indazol-3-yl)-3-fluorobenzoic acid] | < 50 nM
8 | CN(C)C(=O)c1ccc2c(-c3ccc(C(=O)O)cc3F)nn(C(=O)c3c(Cl)cccc3C(F)(F)F)c2c1 [Example 25E, 4-(1-(2-chloro-6-(trifluoromethyl)benzoyl)-6-(dimethyl-carbamoyl)-1H-indazol-3-yl)-3-fluorobenzoic acid] | < 50 nM
9 | O=C(O)Cc1ccc(-c2nn(C(=O)c3c(Cl)cccc3C(F)(F)F)c3cccnc23)cc1 [Example 24AD, 2-(4-(1-(2-chloro-6-(trifluoromethyl)-benzoyl)-1H-pyrazolo[4,3-b]pyridin-3-yl)phenyl)acetic acid] | 500 to 10000 nM
10 | O=C(O)c1cccc(-c2nn(C(=O)c3c(Cl)cccc3C(F)(F)F)c3cccnc23)c1 [Example 24AC, 3-(1-(2-chloro-6-(trifluoromethyl)-benzoyl)-1H-pyrazolo[4,3-b]pyridin-3-yl) benzoic acid] | 500 to 10000 nM
11 | COc1cccc(F)c1C(=O)n1nc(-c2ccc(C(=O)O)cc2F)c2c(F)cccc21 [Example 24AA, 3-fluoro-4-(4-fluoro-1-(2-fluoro-6-methoxybenzoyl)-1H-indazol-3-yl)benzoic acid] | < 50 nM
12 | O=C(O)c1ccc(-c2nn(C(=O)c3c(Cl)cccc3C(F)(F)F)c3cccc(C(F)(F)F)c23)cc1 [Example 24AO, 4-(1-(2-chloro-6-(trifluoromethyl)-benzoyl)-4-(trifluoromethyl)-1H-indazol-3-yl)benzoic acid] | < 50 nM
13 | O=C(O)c1ccc(-c2nn(C(=O)c3c(Cl)cccc3C(F)(F)F)c3cc(CO)ccc23)cc1 [Example 24BE, 4-(1-(2-chloro-6-(trifluoromethyl)-benzoyl)-6-(hydroxymethyl)-1H-indazol-3-yl)benzoic acid] | < 50 nM
14 | COc1cc(C(=O)O)cc(OC)c1-c1nn(C(=O)c2c(Cl)cccc2C(F)(F)F)c2cccc(F)c12 [Example 24T, 4-(1-(2-chloro-6-(trifluoromethyl)-benzoyl)-4-fluoro-1H-indazol-3-yl)-3,5-dimethoxybenzoic acid] | > 10000 nM
15 | O=C(O)c1ccc(-c2nn(C(=O)c3c(Cl)cccc3C(F)(F)F)c3ccccc23)cc1F [Example 24AQ, sodium 4-(1-(2-chloro-6-(trifluoromethyl)-benzoyl)-1H-indazol-3-yl)-2-fluoro benzoate] | < 50 nM
16 | O=C(O)c1ccc(-c2nn(C(=O)c3c(Cl)cccc3C(F)(F)F)c3cc(O)cc(F)c23)c(F)c1 [Example 24BD, 4-(1-(2-chloro-6-(trifluoromethyl)-benzoyl)-4-fluoro-6-hydroxy-1H-indazol-3-yl)-3-fluorobenzoic acid] | 500 to 10000 nM
17 | O=C(O)c1cc(F)c(-c2nn(C(=O)c3c(Cl)cccc3C(F)(F)F)c3cccnc23)cc1F [Example 24AK, 4-(1-(2-chloro-6-(trifluoromethyl)-benzoyl)-1H-pyrazolo[4,3-b]pyridin-3-yl)-2,5-difluorobenzoic acid] | < 50 nM
18 | CC(C)c1cc(-c2nn(C(=O)c3c(Cl)cccc3C(F)(F)F)c3ccccc23)ccc1C(=O)O [Example 24AP, 4-(1-(2-chloro-6-(trifluoromethyl)-benzoyl)-1H-indazol-3-yl)-2-isopropylbenzoic acid] | 500 to 10000 nM
19 | O=C(O)c1ccc(-c2nn(C(=O)c3c(Cl)cccc3C(F)(F)F)c3cc(O)ccc23)c(F)c1 [Example 24BB, 4-(1-(2-chloro-6-(trifluoromethyl)-benzoyl)-6-hydroxy-1H-indazol-3-yl)-3-fluorobenzoic acid] | < 50 nM
20 | O=C(O)c1cc(-c2nn(C(=O)c3c(Cl)cccc3C(F)(F)F)c3cccc(F)c23)ccc1O [Example 24Z, 5-(1-(2-chloro-6-(trifluoromethyl)-benzoyl)-4-fluoro-1H-indazol-3-yl)-2-hydroxybenzoic acid] | > 10000 nM
21 | COc1cc(C(=O)O)ccc1-c1nn(C(=O)c2c(Cl)cccc2C(F)(F)F)c2cccc(F)c12 [Example 24Q, 4-(1-(2-chloro-6-(trifluoromethyl)-benzoyl)-4-fluoro-1H-indazol-3-yl)-3-methoxybenzoic acid] | 50 to 500 nM

Further lines, results first:

Row | IC50 | SMILES
22 | < 50 nM | CN(C)C(=O)c1ccc2c(-c3ccc(C(=O)O)c(O)c3)nn(C(=O)c3c(Cl)cccc3C(F)(F)F)c2c1 [Example 26J, 4-(1-(2-chloro-6-(trifluoromethyl)benzoyl)-6-(dimethyl-carbamoyl)-1H-indazol-3-yl)-2-hydroxybenzoic acid]
23 | < 50 nM | O=C(O)c1ccc(-c2nn(C(=O)c3c(Cl)cccc3C(F)(F)F)c3cc(C(=O)NCCO)ccc23)c(Cl)c1 [Example 25K, 3-chloro-4-(1-(2-chloro-6-(trifluoromethyl)benzoyl)-6-(2-hydroxyethyl-carbamoyl)-1H-indazol-3-yl)benzoic acid]
24 | 50 to 500 nM | O=C(O)c1cc(F)c(-c2nn(C(=O)c3c(Cl)cccc3C(F)(F)F)c3cccc(F)c23)cc1Cl [Example 24X, 2-chloro-4-(1-(2-chloro-6-(trifluoromethyl)-benzoyl)-4-fluoro-1H-indazol-3-yl)-5-fluorobenzoic acid]
25 | 500 to 10000 nM | O=C(O)c1ccc(-c2nn(C(=O)c3c(Cl)cccc3C(F)(F)F)c3cc(O)cc(F)c23)cc1 [Example 24BC, 4-(1-(2-chloro-6-(trifluoromethyl)-benzoyl)-4-fluoro-6-hydroxy-1H-indazol-3-yl)benzoic acid]
26 | < 50 nM | Cc1cc(C(=O)O)ccc1-c1nn(C(=O)c2c(Cl)cccc2C(F)(F)F)c2cccc(F)c12 [Example 24L, 4-(1-(2-chloro-6-(trifluoromethyl)-benzoyl)-4-fluoro-1H-indazol-3-yl)-3-methylbenzoic acid]
27 | 50 to 500 nM | N#Cc1ccc2c(-c3ccc(C(=O)O)cc3)nn(C(=O)c3c(Cl)cccc3C(F)(F)F)c2c1 [Example 29, 4-(1-(2-chloro-6-(trifluoromethyl)benzoyl)-6-cyano-1H-indazol-3-yl)benzoic acid]
28 | < 50 nM | O=C(O)c1ccc(-c2nn(C(=O)c3c(Cl)cccc3C(F)(F)F)c3cc(Br)cc(F)c23)cc1 [Example 24AX, 4-(6-bromo-1-(2-chloro-6-(trifluoromethyl)-benzoyl)-4-fluoro-1H-indazol-3-yl) benzoic acid]
29 | < 50 nM | O=C(O)c1ccc(-c2nn(C(=O)c3c(Cl)cccc3C(F)(F)F)c3cc(C(=O)NCCO)ccc23)cc1 [Example 25A, sodium 4-(1-(2-chloro-6-(trifluoromethyl)benzoyl)-6-(2-hydroxyethylcarbamoyl)-1H-indazol-3-yl)benzoate]
30 | < 50 nM | O=C(O)c1ccc(-c2nn(C(=O)c3c(Cl)cccc3C(F)(F)F)c3cc(C(=O)NCCCO)ccc23)cc1 [Example 25L, 4-(1-(2-chloro-6-(trifluoromethyl)benzoyl)-6-(3-hydroxypropyl-carbamoyl)-1H-indazol-3-yl)benzoic acid]
